Laboratory results from US7915251B2, “Alpha-helix mimetics and methods relating to the treatment of fibrosis” (Institute for Chemical Genomics, priority 2005, dated 2011).

Tests used:
[1] = test system: C57/B16 mice treated with intratracheal bleomeycin; assay: Bleomycin induced murine pulmonary fibrosis model (lung sections, trichrome stain, body weight, survival); format: in vivo
Procedure: Murine models of bleomycin induced fibrosis have been developed in order to study fibrotic disease progression.
There is an absence of airway epithelium in lower left compared to upper left (see arrow heads) and extensive collagen deposition (lower left). On the sixth day, either saline (upper right) or ICG-001 (5 mgs/Kg/day) was administered for 10 days after which the mice were sacrificed and sectioned. Of interest is the upper right (saline treatment) showing lack of normal airway epithelialization, extensive collagen deposition and intra-airway hypercellularity (fibroblasts and inflammatory influx).

[2] = test system: S100A4; assay: RT-PCR for S100A4 in bleomycin treated mice; format: in vivo; conditions: ICG-001 5 mgs/Kg/day s.c.
[3] = test system: collagen 1A2; assay: RT-PCR for collagen 1A2 in bleomycin treated mice; format: in vivo; conditions: ICG-001 5 mgs/Kg/day s.c.
[4] = test system: S100A4; assay: S100A4 expression in IPF patient fibroblasts (Western blot on whole cell lysates); format: cell-based, human
Procedure: (§1) Western blots for S100A4 (also know as FSP-1 or fibroblast specific protein-1) and E-Cadherin were performed on whole cell lysates.

[5] = test system: E-Cadherin; assay: E-Cadherin expression in IPF patient fibroblasts (Western blot on whole cell lysates); format: cell-based, human; conditions: RPMI 1640+10% FBS, 2 days
Procedure: as §1

[6] = biological target: β-catenin/CBP interaction (Homo sapiens, UniProt Q92793); conditions: cited from earlier work
[7] = bleomycin 5 days, then ICG-001 5 mgs/Kg/day for 10 days from the sixth day
[8] = bleomycin 5 days, then ICG-001 5 mgs/Kg/day for 10 days, untreated controls did not

β-catenin/CBP interaction, sequence (Q92793 whole entry): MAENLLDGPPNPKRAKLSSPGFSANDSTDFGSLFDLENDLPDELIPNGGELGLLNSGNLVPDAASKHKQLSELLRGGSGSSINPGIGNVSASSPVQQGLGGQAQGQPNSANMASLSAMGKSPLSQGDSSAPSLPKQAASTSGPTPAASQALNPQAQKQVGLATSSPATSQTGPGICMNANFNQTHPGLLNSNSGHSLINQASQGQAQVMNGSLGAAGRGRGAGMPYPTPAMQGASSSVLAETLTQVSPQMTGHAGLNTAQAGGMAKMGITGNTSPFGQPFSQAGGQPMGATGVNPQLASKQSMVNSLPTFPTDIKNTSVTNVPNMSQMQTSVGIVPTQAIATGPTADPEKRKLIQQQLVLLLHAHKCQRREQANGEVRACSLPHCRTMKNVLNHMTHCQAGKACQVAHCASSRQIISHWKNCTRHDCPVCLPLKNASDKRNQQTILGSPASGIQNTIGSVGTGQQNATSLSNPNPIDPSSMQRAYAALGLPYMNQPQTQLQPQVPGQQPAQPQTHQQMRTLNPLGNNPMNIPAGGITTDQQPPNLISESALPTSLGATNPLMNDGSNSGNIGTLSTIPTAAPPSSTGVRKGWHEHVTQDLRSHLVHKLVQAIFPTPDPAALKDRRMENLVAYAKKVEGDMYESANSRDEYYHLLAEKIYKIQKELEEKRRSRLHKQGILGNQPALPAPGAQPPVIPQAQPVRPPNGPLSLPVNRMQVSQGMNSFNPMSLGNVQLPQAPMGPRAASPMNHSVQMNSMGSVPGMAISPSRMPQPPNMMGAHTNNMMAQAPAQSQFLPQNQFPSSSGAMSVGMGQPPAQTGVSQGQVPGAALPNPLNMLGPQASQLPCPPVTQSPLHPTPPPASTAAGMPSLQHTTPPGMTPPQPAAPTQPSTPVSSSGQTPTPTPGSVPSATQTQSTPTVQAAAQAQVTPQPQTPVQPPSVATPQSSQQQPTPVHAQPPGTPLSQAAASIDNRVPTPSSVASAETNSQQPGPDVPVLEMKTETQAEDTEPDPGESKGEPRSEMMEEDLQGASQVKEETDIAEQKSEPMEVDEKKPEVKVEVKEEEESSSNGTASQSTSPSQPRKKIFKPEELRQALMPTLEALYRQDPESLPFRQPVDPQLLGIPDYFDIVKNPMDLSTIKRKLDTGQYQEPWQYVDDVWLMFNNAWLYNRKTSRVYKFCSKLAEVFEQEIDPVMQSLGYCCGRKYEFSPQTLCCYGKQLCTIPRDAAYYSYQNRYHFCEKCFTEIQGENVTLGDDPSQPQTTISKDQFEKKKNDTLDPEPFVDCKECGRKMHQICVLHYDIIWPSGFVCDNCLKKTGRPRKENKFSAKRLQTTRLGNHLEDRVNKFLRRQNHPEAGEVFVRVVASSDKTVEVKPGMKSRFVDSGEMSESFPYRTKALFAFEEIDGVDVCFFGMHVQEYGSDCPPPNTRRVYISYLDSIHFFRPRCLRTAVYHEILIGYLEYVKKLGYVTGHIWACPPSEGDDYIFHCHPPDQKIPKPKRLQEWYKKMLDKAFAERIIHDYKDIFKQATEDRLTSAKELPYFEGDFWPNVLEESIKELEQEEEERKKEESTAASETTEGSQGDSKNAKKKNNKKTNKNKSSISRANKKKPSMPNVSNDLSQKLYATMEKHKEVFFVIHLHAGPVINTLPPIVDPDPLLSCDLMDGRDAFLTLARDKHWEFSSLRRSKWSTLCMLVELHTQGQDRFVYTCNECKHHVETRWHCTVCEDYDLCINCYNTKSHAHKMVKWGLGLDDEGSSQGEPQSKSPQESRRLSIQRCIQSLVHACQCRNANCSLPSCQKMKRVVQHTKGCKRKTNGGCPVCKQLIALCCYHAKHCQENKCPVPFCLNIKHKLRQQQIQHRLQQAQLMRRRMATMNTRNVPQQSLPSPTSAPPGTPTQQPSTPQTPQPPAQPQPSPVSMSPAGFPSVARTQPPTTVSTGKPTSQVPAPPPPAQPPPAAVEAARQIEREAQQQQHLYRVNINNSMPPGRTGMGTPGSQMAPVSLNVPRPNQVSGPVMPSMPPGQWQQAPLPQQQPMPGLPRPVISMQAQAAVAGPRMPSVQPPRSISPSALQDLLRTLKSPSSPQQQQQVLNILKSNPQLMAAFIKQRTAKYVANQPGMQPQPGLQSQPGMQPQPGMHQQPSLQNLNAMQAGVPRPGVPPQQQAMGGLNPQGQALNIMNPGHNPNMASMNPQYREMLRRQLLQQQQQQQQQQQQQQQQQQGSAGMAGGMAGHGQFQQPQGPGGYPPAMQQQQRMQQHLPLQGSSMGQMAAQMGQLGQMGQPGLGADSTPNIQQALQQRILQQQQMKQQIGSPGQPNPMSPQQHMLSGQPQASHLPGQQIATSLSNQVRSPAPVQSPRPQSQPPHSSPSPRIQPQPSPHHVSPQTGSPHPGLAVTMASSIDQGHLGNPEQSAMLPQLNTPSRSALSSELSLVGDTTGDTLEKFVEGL

In the case of `O=C1[C@H](Cc2ccc(O)cc2)N2C(=O)CCN(C(=O)NCc3ccccc3)[C@H]2CN1Cc1cccc2ccccc12` [ICG-001], the “airway appearance in lung sections” value [1, 7] was “essentially normal”, the “collagen levels (trichrome stain)” value [1, 7] was “normal collagen levels” and the body weight [1, 8] was “regained normal body weight”. For the same compound, the survival [1, 8] was “survived”, the “disease progression, as judged by reduced mortality, histopathology and endogenous gene expression” value ([1]; murine bleomycin model of pulmonary fibrosis, 5 mg/Kg/day) was “not only halts but reverses disease progression” and the “S100A4 message (RT-PCR)” value [2] was “reduced essentially to negative control”. For the same compound, the “collagen 1A2 message (RT-PCR)” value [3] was “reduced essentially to negative control”, the “S100A4 expression at the mRNA level” value [4] was “this is also true at the mRNA level” and the “S100A4 expression (Western blot)” value ([4]; RPMI 1640+10% FBS, 2 days) was “decreased”. The “E-cadherin expression (Western blot)” value [5] was “increased” and the “effect on β-catenin/CBP interaction” value [6] was “selectively blocks”.
